{
  "source": "patent EP4467141A1",
  "about": "“PYRAZOLO-QUINOLINES AS SELECTIVE INHIBITORS OF GENOTOXIC STRESS-INDUCED IKK/NF- KB PATHWAYS FOR CANCER THERAPY” (Max-Delbrück-Centrum für Molekulare Medizin in der …, priority 2023, dated 2024)",
  "assay_in_all_cases": "Kinase panel study",
  "format_in_all_cases": "biochemical",
  "details_in_all_cases": "read-out: Percentage of inhibition; for inhibition at 1 µM: 1000nM; for inhibition at 10 µM: 10000nM",
  "key": {"ABL1 G250E": {"target": "T1, ABL1 G250E (Homo sapiens, UniProt P00519, G250E)", "T1 construct": "purchased Thermo Fisher Scientific", "in_short": "(§1)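 ZLyte/Adapta biochemical kinase assays, standard operating procedures; % inhibition at 1 µM or 10 µM test compound; IC50 determined in panel.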"}, "AMPK A1/B1/G1": {"target": "T2, AMPK A1/B1/G1 (Homo sapiens, UniProt Q13131)", "T2 construct": "purchased Thermo Fisher Scientific", "T2 sequence (Q13131 whole entry)": "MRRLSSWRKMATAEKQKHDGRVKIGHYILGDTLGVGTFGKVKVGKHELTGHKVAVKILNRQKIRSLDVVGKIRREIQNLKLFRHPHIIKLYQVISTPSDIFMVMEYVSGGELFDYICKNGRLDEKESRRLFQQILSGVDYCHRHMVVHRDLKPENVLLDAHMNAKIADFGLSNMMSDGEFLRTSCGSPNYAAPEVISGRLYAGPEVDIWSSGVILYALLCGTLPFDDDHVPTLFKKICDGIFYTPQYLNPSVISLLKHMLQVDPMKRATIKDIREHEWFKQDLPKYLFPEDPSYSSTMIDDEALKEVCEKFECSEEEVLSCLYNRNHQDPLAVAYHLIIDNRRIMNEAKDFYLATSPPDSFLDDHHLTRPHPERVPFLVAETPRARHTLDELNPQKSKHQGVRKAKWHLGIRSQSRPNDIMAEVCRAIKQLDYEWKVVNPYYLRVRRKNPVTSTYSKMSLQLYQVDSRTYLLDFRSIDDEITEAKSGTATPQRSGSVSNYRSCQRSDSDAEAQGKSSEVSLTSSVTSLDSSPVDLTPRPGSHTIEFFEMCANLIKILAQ", "T2 sequence (Q9Y478 whole entry partner)": "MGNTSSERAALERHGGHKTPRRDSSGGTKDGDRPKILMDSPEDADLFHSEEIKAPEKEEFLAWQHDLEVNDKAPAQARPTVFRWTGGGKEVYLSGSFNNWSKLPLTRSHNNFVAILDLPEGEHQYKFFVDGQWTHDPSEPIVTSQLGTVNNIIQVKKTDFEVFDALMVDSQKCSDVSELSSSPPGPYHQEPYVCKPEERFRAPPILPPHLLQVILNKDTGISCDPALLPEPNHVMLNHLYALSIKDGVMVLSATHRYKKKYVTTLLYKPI", "T2 sequence (P54619 whole entry partner)": "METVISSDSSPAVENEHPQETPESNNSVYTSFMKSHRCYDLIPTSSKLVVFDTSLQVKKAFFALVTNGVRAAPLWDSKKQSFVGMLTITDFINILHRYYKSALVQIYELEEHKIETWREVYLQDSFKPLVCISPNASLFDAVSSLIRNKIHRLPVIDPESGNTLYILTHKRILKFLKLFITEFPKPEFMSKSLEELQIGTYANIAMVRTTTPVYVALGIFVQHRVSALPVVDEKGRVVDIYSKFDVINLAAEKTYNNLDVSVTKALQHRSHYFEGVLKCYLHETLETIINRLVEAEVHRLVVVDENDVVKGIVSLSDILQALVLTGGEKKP", "in_short": "as §1"}, "CDK9/cyclin T1": {"target": "T3, CDK9/cyclin T1 (Homo sapiens, UniProt P50750)", "T3 construct": "purchased Thermo Fisher Scientific", "T3 sequence (P50750 whole entry)": "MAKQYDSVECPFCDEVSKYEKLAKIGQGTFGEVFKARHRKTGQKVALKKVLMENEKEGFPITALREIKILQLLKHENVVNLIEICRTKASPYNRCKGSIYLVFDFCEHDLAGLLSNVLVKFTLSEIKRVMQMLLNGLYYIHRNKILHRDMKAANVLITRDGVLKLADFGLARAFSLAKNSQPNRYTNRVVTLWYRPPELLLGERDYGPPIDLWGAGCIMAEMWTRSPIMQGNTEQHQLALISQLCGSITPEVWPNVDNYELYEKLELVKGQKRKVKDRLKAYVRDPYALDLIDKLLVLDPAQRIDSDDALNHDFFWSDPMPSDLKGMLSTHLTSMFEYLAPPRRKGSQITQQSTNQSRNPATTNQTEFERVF", "T3 sequence (O60563 whole entry partner)": "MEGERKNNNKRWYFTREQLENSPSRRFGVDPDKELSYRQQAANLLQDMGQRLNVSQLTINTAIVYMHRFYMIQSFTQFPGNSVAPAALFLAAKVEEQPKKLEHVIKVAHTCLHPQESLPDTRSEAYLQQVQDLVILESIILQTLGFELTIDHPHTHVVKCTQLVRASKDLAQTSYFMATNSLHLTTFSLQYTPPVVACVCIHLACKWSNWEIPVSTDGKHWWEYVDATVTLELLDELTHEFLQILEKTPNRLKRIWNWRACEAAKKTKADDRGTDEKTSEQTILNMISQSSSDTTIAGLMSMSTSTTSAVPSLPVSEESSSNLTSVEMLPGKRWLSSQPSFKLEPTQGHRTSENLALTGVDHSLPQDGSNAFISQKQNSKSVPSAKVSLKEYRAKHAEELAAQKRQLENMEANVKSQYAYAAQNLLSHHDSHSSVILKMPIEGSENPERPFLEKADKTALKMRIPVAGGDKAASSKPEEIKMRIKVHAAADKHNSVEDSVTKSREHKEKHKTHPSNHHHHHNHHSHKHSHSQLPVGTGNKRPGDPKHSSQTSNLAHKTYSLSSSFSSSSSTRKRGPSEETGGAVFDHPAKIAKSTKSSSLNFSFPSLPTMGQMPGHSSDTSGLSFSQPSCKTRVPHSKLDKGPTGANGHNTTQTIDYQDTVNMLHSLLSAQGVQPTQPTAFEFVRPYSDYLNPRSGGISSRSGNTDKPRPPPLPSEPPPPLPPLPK", "in_short": "as §1"}, "DAPK3 (ZIPK)": {"target": "T4, DAPK3 (ZIPK) (Homo sapiens, UniProt O43293)", "T4 construct": "purchased Thermo Fisher Scientific", "T4 sequence (O43293 whole entry)": "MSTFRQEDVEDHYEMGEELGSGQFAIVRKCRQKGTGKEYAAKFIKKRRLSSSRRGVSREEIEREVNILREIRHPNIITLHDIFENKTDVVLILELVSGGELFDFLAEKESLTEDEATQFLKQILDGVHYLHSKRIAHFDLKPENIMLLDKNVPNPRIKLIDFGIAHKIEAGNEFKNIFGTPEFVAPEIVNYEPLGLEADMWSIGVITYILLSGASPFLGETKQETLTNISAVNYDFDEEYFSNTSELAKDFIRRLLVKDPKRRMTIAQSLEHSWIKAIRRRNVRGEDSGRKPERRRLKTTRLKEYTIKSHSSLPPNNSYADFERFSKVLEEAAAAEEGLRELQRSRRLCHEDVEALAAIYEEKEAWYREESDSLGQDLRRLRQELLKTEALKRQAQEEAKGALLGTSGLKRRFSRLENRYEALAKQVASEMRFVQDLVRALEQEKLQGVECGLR", "in_short": "as §1"}, "DYRK4": {"target": "T5, DYRK4 (Homo sapiens, UniProt Q9NR20)", "T5 construct": "purchased Thermo Fisher Scientific", "T5 sequence (Q9NR20 1-520)": "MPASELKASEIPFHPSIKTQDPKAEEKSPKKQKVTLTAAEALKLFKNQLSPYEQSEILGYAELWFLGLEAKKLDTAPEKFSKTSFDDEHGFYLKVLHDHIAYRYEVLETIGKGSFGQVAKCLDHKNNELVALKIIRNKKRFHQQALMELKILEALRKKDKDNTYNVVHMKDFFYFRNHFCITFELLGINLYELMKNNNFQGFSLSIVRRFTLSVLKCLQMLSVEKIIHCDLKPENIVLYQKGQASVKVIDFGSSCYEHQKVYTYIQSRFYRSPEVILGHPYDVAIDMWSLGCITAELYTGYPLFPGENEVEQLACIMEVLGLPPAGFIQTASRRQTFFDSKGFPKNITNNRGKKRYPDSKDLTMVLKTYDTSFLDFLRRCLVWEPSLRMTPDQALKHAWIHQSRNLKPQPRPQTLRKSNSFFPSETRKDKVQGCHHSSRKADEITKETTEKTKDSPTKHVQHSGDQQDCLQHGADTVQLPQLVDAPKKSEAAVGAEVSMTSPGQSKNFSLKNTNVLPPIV", "in_short": "as §1"}, "GSK3B (GSK3 beta)": {"target": "T6, GSK3B (GSK3 beta) (Homo sapiens, UniProt P49841)", "T6 construct": "purchased Thermo Fisher Scientific", "T6 sequence (P49841 whole entry)": "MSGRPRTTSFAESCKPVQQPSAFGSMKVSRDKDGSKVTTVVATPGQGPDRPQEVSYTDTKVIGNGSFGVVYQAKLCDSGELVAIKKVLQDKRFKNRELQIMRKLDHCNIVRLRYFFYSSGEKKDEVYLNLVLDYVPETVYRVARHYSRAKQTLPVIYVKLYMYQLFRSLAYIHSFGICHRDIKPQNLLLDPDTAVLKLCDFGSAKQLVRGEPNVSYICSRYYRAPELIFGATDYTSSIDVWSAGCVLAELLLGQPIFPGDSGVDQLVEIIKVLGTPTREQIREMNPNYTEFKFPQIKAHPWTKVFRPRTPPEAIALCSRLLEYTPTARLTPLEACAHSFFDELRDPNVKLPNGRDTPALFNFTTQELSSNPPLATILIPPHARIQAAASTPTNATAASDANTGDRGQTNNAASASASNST", "in_short": "as §1"}, "LYN B": {"target": "T7, LYN B (Homo sapiens, UniProt P07948)", "T7 construct": "purchased Thermo Fisher Scientific", "T7 sequence (P07948 1-491 isoform P07948-2)": "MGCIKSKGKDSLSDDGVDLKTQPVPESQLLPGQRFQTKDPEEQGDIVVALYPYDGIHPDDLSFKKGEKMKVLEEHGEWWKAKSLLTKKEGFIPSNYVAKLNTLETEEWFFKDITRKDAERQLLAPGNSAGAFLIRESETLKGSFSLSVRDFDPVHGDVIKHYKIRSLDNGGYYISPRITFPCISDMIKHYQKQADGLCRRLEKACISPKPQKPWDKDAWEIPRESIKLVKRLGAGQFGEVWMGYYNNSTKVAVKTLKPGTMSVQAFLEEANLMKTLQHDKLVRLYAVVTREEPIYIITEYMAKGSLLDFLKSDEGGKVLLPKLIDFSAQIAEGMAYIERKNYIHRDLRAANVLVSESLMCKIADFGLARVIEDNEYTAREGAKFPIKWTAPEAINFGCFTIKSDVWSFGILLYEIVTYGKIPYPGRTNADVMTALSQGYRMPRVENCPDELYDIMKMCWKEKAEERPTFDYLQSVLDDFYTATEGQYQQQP", "in_short": "as §1"}, "MAPK13 (p38 delta)": {"target": "T8, MAPK13 (p38 delta) (Homo sapiens, UniProt O15264)", "T8 construct": "purchased Thermo Fisher Scientific", "T8 sequence (O15264 1-365)": "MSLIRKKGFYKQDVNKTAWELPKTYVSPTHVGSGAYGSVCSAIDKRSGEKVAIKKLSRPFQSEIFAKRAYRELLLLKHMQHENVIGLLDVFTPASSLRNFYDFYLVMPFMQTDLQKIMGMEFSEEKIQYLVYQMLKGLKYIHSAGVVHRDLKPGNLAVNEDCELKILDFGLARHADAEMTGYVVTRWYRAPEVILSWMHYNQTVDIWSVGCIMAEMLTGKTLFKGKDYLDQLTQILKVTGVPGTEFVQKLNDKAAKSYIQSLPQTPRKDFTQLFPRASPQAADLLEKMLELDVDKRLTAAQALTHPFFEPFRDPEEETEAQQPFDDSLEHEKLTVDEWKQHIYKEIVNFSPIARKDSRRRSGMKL", "in_short": "as §1"}, "PIM2": {"target": "T9, PIM2 (Homo sapiens, UniProt Q9P1W9)", "T9 construct": "purchased Thermo Fisher Scientific", "T9 sequence (Q9P1W9 whole entry)": "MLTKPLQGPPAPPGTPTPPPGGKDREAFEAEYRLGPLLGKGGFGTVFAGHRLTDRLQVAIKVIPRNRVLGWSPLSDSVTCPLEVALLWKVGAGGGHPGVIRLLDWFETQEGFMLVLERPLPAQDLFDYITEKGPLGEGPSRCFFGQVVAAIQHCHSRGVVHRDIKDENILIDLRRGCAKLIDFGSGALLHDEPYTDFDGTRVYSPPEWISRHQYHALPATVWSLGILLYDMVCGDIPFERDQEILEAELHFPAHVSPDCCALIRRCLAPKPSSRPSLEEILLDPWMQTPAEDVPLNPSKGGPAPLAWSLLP", "in_short": "as §1"}, "PRKCB2 (PKC beta II)": {"target": "T10, PRKCB2 (PKC beta II) (Homo sapiens, UniProt P05771)", "T10 construct": "purchased Thermo Fisher Scientific", "T10 sequence (P05771 1-673 isoform P05771-2)": "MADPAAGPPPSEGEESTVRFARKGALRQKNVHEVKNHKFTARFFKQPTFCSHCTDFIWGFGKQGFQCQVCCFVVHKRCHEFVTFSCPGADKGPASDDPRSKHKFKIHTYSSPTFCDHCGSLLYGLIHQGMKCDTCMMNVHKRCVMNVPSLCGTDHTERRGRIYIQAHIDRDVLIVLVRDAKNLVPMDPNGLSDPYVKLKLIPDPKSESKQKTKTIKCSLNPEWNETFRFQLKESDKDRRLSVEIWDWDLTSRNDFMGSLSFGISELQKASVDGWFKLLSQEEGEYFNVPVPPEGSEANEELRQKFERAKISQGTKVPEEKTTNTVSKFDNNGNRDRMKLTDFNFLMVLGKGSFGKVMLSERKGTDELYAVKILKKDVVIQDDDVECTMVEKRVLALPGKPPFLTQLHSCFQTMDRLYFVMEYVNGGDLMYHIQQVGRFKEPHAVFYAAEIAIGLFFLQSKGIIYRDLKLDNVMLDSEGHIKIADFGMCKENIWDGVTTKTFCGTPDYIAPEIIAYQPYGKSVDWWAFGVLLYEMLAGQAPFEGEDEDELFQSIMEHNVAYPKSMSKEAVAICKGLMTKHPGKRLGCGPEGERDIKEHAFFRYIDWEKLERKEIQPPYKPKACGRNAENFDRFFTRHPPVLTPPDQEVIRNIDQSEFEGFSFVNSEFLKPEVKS", "in_short": "as §1"}},
  "data": [
    {"smiles": "COc1ccc2c(c1OC)c(=O)n1c3ccc(O)cc3c3ccnc2c31", "note": "[MW01, 5-Hydroxy-10,11-dimethoxy-9H-benzo[c]indolo[3,2,1-ij][1,5]naphthyridin-9-one]", "values": [
      {"measurement": "inhibition at 1 µM", "setting": "ABL1 G250E", "value": 9, "unit": "%"},
      {"measurement": "inhibition at 10 µM", "setting": "ABL1 G250E", "value": 32, "unit": "%"},
      {"measurement": "inhibition at 1 µM", "setting": "AMPK A1/B1/G1", "value": 4, "unit": "%"},
      {"measurement": "inhibition at 10 µM", "setting": "AMPK A1/B1/G1", "value": 14, "unit": "%"},
      {"measurement": "inhibition at 1 µM", "setting": "CDK9/cyclin T1", "value": 11, "unit": "%"},
      {"measurement": "inhibition at 10 µM", "setting": "CDK9/cyclin T1", "value": 20, "unit": "%"},
      {"measurement": "inhibition at 1 µM", "setting": "DAPK3 (ZIPK)", "value": 2, "unit": "%"},
      {"measurement": "inhibition at 10 µM", "setting": "DAPK3 (ZIPK)", "value": 9, "unit": "%"},
      {"measurement": "inhibition at 1 µM", "setting": "DYRK4", "value": -2, "unit": "%"},
      {"measurement": "inhibition at 10 µM", "setting": "DYRK4", "value": 0, "unit": "%"},
      {"measurement": "inhibition at 1 µM", "setting": "GSK3B (GSK3 beta)", "value": 27, "unit": "%"},
      {"measurement": "inhibition at 10 µM", "setting": "GSK3B (GSK3 beta)", "value": 52, "unit": "%"},
      {"measurement": "inhibition at 1 µM", "setting": "LYN B", "value": 6, "unit": "%"},
      {"measurement": "inhibition at 10 µM", "setting": "LYN B", "value": 23, "unit": "%"},
      {"measurement": "inhibition at 1 µM", "setting": "MAPK13 (p38 delta)", "value": 13, "unit": "%"},
      {"measurement": "inhibition at 10 µM", "setting": "MAPK13 (p38 delta)", "value": 11, "unit": "%"},
      {"measurement": "inhibition at 1 µM", "setting": "PIM2", "value": 6, "unit": "%"},
      {"measurement": "inhibition at 10 µM", "setting": "PIM2", "value": 13, "unit": "%"},
      {"measurement": "inhibition at 1 µM", "setting": "PRKCB2 (PKC beta II)", "value": 11, "unit": "%"},
      {"measurement": "inhibition at 10 µM", "setting": "PRKCB2 (PKC beta II)", "value": 14, "unit": "%"}
    ]},
    {"smiles": "COc1ccc2cc3c(N)nn(C(=O)c4cccc(N(C)C)c4)c3nc2c1", "note": "[MW05, (3-Amino-7-methoxypyrazolo[3,4-b]quinolin-1-yl)-[3-(dimethylamino)phenyl]methanone]", "values": [
      {"measurement": "inhibition at 1 µM", "setting": "ABL1 G250E", "value": 12, "unit": "%"},
      {"measurement": "inhibition at 10 µM", "setting": "ABL1 G250E", "value": 0, "unit": "%"},
      {"measurement": "inhibition at 1 µM", "setting": "AMPK A1/B1/G1", "value": 6, "unit": "%"},
      {"measurement": "inhibition at 10 µM", "setting": "AMPK A1/B1/G1", "value": -3, "unit": "%"},
      {"measurement": "inhibition at 1 µM", "setting": "CDK9/cyclin T1", "value": 19, "unit": "%"},
      {"measurement": "inhibition at 10 µM", "setting": "CDK9/cyclin T1", "value": 57, "unit": "%"},
      {"measurement": "inhibition at 1 µM", "setting": "DAPK3 (ZIPK)", "value": 2, "unit": "%"},
      {"measurement": "inhibition at 10 µM", "setting": "DAPK3 (ZIPK)", "value": -3, "unit": "%"},
      {"measurement": "inhibition at 1 µM", "setting": "DYRK4", "value": 4, "unit": "%"},
      {"measurement": "inhibition at 10 µM", "setting": "DYRK4", "value": 4, "unit": "%"},
      {"measurement": "inhibition at 1 µM", "setting": "GSK3B (GSK3 beta)", "value": 6, "unit": "%"},
      {"measurement": "inhibition at 10 µM", "setting": "GSK3B (GSK3 beta)", "value": 14, "unit": "%"},
      {"measurement": "inhibition at 1 µM", "setting": "LYN B", "value": 6, "unit": "%"},
      {"measurement": "inhibition at 10 µM", "setting": "LYN B", "value": 0, "unit": "%"},
      {"measurement": "inhibition at 1 µM", "setting": "MAPK13 (p38 delta)", "value": 8, "unit": "%"},
      {"measurement": "inhibition at 10 µM", "setting": "MAPK13 (p38 delta)", "value": 9, "unit": "%"},
      {"measurement": "inhibition at 1 µM", "setting": "PIM2", "value": -1, "unit": "%"},
      {"measurement": "inhibition at 10 µM", "setting": "PIM2", "value": -3, "unit": "%"},
      {"measurement": "inhibition at 1 µM", "setting": "PRKCB2 (PKC beta II)", "value": 9, "unit": "%"},
      {"measurement": "inhibition at 10 µM", "setting": "PRKCB2 (PKC beta II)", "value": -5, "unit": "%"}
    ]}
  ]
}
